# In patent US7615569B2, “Inhibitors of ion channels” (Icagen, Inc., priority 2005, dated 2009):
# Target: T1, hSCN3A (Homo sapiens, UniProt Q9NY46)
# T1 construct: expressed in transfected cells
# Experiment: SCN3A inhibitory activity in HEK cells stably expressing hSCN3A (whole-cell patch clamp / radiotracer efflux HTS)
# Format: cell-based
# Conditions: HEK cells stably transfected with hSCN3A
# T1 sequence (Q9NY46 whole entry): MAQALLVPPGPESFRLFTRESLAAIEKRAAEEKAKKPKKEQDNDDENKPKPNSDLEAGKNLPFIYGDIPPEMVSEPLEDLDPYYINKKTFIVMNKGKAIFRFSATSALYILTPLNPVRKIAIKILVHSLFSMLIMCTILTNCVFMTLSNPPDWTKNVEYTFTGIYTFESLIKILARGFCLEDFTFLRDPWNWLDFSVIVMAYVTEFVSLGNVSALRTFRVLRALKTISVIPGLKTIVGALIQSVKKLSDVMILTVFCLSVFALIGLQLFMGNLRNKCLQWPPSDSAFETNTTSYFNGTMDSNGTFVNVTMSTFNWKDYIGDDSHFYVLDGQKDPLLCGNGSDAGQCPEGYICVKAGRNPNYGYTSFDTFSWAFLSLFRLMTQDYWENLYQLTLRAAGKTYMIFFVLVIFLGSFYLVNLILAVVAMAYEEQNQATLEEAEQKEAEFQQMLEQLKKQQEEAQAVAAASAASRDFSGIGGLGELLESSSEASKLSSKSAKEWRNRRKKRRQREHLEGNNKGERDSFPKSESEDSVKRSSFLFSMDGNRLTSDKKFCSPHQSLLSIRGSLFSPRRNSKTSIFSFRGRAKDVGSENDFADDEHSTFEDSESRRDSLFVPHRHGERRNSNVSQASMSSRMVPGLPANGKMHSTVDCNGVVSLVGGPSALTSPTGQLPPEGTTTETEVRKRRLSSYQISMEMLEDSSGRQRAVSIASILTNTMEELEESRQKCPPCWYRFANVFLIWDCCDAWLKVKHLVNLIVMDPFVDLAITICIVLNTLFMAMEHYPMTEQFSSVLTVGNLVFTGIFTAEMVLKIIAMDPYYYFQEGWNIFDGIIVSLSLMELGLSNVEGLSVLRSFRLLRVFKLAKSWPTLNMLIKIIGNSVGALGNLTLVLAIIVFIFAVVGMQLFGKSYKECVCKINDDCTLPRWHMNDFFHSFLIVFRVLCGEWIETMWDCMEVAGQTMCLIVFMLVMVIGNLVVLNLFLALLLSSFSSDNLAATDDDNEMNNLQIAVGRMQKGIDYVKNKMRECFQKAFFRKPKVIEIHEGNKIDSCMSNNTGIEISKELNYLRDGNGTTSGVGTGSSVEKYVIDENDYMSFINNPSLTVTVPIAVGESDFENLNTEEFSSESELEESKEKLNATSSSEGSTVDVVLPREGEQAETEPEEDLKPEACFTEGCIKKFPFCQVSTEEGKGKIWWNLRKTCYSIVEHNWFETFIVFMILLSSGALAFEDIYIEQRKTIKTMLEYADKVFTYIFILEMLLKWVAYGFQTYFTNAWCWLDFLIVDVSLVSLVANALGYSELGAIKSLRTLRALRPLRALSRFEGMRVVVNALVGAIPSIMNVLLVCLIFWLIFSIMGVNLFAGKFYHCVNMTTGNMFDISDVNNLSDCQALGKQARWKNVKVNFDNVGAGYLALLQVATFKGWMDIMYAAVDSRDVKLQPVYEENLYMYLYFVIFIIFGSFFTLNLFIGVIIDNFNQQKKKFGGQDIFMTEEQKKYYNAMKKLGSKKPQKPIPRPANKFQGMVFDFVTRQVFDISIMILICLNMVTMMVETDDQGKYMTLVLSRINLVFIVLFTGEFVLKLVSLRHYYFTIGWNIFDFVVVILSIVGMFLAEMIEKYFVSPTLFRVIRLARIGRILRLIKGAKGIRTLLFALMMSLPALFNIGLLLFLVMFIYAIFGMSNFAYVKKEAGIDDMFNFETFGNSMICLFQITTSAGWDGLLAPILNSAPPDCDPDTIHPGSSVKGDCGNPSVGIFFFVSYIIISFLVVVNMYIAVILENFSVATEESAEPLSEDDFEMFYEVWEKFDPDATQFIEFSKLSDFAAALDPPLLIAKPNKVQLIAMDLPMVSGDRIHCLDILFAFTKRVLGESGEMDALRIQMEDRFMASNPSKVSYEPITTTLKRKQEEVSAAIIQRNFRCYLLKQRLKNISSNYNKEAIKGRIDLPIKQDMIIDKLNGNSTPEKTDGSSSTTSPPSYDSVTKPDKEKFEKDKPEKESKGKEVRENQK
row,SMILES,IC50 [µM]
1,"O=S(=O)(Nc1nccs1)c1ccc(-c2nc(CCCOc3ccc(Cl)cc3)c[nH]2)cc1 [Compound 9, 4-{4-[3-(4-Chloro-phenoxy)-propyl]-1H-imidazol-2-yl}-N-thiazol-2-yl-benzenesulfonamide]",0.5 to 1
2,"O=S(=O)(Nc1nccs1)c1ccc(-c2nnc(COc3ccc(C(F)(F)F)cn3)[nH]2)cc1 [Compound 118, N-thiazol-2-yl-4-[5-(5-trifluoromethyl-pyridin-2-yloxymethyl)-4H-[1,2,4]triazol-3-yl]-benzenesulfonamide]",> 1
3,"COc1ccc(C2(c3c[nH]c(-c4ccc(S(=O)(=O)Nc5nccs5)cc4)n3)CC2)cc1 [Compound 44, 4-{4-[1-(4-Methoxy-phenyl)-cyclopropyl]-1H-imidazol-2-yl}-N-thiazol-2-yl-benzenesulfonamide]",0.5 to 1
4,"COc1ccc(CCc2c[nH]c(-c3ccc(S(=O)(=O)Nc4nccs4)cc3)n2)cc1Cl [Compound 18, 4-{4-[2-(3-Chloro-4-methoxy-phenyl)-ethyl]-1H-imidazol-2-yl}-N-thiazol-2-yl-benzenesulfonamide]",0.1 to 0.5
5,"CC1(Cc2ccc(Cl)c(Cl)c2)N=C(c2ccc(S(=O)(=O)Nc3nccs3)cc2)NC1=O (stereo not shown) [Compound 107, 4-[4-(3,4-Dichloro-benzyl)-4-methyl-5-oxo-4,5-dihydro-1H-imidazol-2-yl]-N-thiazol-2-yl-benzenesulfonamide]",> 1
6,"O=S(=O)(Nc1nccs1)c1ccc(-c2nc(C3(c4ccc(Cl)cc4)CCC3)c[nH]2)cc1 [Compound 25, 4-{4-[1-(4-Chloro-phenyl)-cyclobutyl]-1H-imidazol-2-yl}-N-thiazol-2-yl-benzenesulfonamide]",0.1 to 0.5
7,"O=S(=O)(Nc1nccs1)c1ccc(-c2nc(CCc3ccc(C(F)(F)F)cc3)c[nH]2)cc1 [Compound 19, N-Thiazol-2-yl-4-{4-[2-(4-trifluoromethyl-phenyl)-ethyl]-1H-imidazol-2-yl}-benzenesulfonamide]",0.1 to 0.5
8,"O=S(=O)(Nc1nccs1)c1ccc(NCC(c2ccccc2)c2ccccc2)nc1 [Compound 124, 6-(2,2-Diphenyl-ethylamino)-pyridine-3-sulfonic acid thiazol-2-ylamide]",0.5 to 1
9,"O=S(=O)(Nc1nccs1)c1ccc(-c2nc(COc3ncc(C(F)(F)F)cc3Cl)n[nH]2)cc1 [Compound 117, 4-[5-(3-Chloro-5-trifluoromethyl-pyridin-2-yloxymethyl)-2H-[1,2,4]triazol-3-yl]-n-thiazol-2-yl-benzenesulfonamide]",0.5 to 1
10,"Cc1ccc(C2(c3c[nH]c(-c4ccc(S(=O)(=O)Nc5nccs5)cc4)n3)CCCCC2)cc1 [Compound 21, N-Thiazol-2-yl-4-[4-(1-p-tolyl-cyclohexyl)-1H-imidazol-2-yl]-benzenesulfonamide]",0.1 to 0.5
11,"O=S(=O)(Nc1nccs1)c1ccc(-c2nc(COc3c(Cl)cccc3Cl)n[nH]2)cc1 [Compound 119, 4-[5-(2,6-Dichloro-phenoxymethyl)-2H-[1,2,4]triazol-3-yl]-n-thiazol-2-yl-benzenesulfonamide]",> 1
12,"O=S(=O)(Nc1nccs1)c1ccc(-c2nc(C3(c4ccccc4)CC3)c[nH]2)cc1 [Compound 41, 4-[4-(1-Phenyl-cyclopropyl)-1H-imidazol-2-yl]-N-thiazol-2-yl-benzenesulfonamide]",> 1
13,"O=S(=O)(Nc1nccs1)c1ccc(-c2nc(-c3ccccc3)c(-c3ccccc3)[nH]2)cc1 [Compound 1, 4-(4,5-Diphenyl-1H-imidazol-2-yl)-N-thiazol-2-yl-benzenesulfonamide]",0.1 to 0.5
14,"O=S(=O)(Nc1nccs1)c1ccc(-c2nc(Cc3ccccc3F)c[nH]2)cc1 [Compound 35, 4-[4-(2-Fluoro-benzyl)-1H-imidazol-2-yl]-N-thiazol-2-yl-benzenesulfonamide]",0.5 to 1
15,"O=S(=O)(Nc1nccs1)c1ccc(-c2nnc(COc3ncc(Cl)cc3Cl)[nH]2)cc1 [Compound 120, 4-[5-(3,5-Dichloro-pyridin-2-yloxymethyl)-4H-[1,2,4]triazol-3-yl]-n-thiazol-2-yl-benzenesulfonamide]",> 1
16,"Cc1nc(-c2ccc(S(=O)(=O)Nc3nccs3)cc2)[nH]c1-c1ccccc1 [Compound 4, 4-(4-Methyl-5-phenyl-1H-imidazol-2-yl)-N-thiazol-2-yl-benzenesulfonamide]",0.5 to 1

# Now from value to compound:
row,IC50 [µM],SMILES
1,0.1 to 0.5,"O=S(=O)(Nc1nccs1)c1ccc(-c2nc(CCc3ccccc3Cl)c[nH]2)cc1 [Compound 14, 4-{4-[2-(2-Chloro-phenyl)-ethyl]-1H-imidazol-2-yl}-N-thiazol-2-yl-benzenesulfonamide]"
2,0.1 to 0.5,"Cc1ccc(C)c(CCc2c[nH]c(-c3ccc(S(=O)(=O)Nc4nccs4)cc3)n2)c1 [Compound 29, 4-{4-[2-(2,5-Dimethyl-phenyl)-ethyl]-1H-imidazol-2-yl}-N-thiazol-2-yl-benzenesulfonamide]"
3,< 0.1,"O=S(=O)(Nc1nccs1)c1ccc(-c2nc(Cc3ccc(Cl)c(Cl)c3)c[nH]2)cc1 [Compound 36, 4-[4-(3,4-Dichloro-benzyl)-1H-imidazol-2-yl]-N-thiazol-2-yl-benzenesulfonamide]"
4,< 0.1,"O=S(=O)(Nc1nccs1)c1ccc(-c2nc(Cc3ccc(Cl)cc3)n[nH]2)cc1F [Compound 114, 4-[5-(4-Chloro-benzyl)-2H-[1,2,4]triazol-3-yl]-2-fluoro-n-thiazol-2-yl-benzenesulfonamide]"
5,0.1 to 0.5,"O=S(=O)(Nc1nccs1)c1ccc(-c2ncc(Cc3ccc(Cl)cc3)[nH]2)cc1 [Compound 8, 4-[5-(4-Chloro-benzyl)-1H-imidazol-2-yl]-N-thiazol-2-yl-benzenesulfonamide]"
6,0.1 to 0.5,"O=S(=O)(Nc1nccs1)c1ccc(-c2nnc(C(c3ccccc3)c3ccccc3)[nH]2)cc1 [Compound 3, 4-(5-Benzhydryl-4H-[1,2,4]triazol-3-yl)-N-thiazol-2-yl-benzenesulfonamide]"
7,0.1 to 0.5,"O=S(=O)(Nc1nccs1)c1ccc(-c2nc(C(c3ccccc3)C3CCCCC3)c[nH]2)cc1 (stereo not shown) [Compound 47, 4-[4-(Cyclohexyl-phenyl-methyl)-1H-imidazol-2-yl]-N-thiazol-2-yl-benzenesulfonamide]"
8,< 0.1,"O=S(=O)(Nc1nccs1)c1ccc(-c2nc(Cc3cccc(Cl)c3)c[nH]2)cc1 [Compound 16, 4-[4-(3-Chloro-benzyl)-1H-imidazol-2-yl]-N-thiazol-2-yl-benzenesulfonamide]"
9,0.1 to 0.5,"O=S(=O)(Nc1nccs1)c1ccc(-c2nc(CCc3cccc(Cl)c3)c[nH]2)cc1 [Compound 28, 4-{4-[2-(3-Chloro-phenyl)-ethyl]-1H-imidazol-2-yl}-N-thiazol-2-yl-benzenesulfonamide]"
10,< 0.1,"O=S(=O)(Nc1nccs1)c1ccc(-c2nc(CCc3cc(Cl)cc(Cl)c3)c[nH]2)cc1 [Compound 26, 4-{4-[2-(3,5-Dichloro-phenyl)-ethyl]-1H-imidazol-2-yl}-N-thiazol-2-yl-benzenesulfonamide]"
11,< 0.1,"O=S(=O)(Nc1nccs1)c1ccc(-c2nnc(Cc3ccc(Cl)c(Cl)c3)[nH]2)cc1 [Compound 95, 4-[5-(3,4-Dichloro-benzyl)-4H-[1,2,4]triazol-3-yl]-N-thiazol-2-yl-benzenesulfonamide]"
12,< 0.1,"O=S(=O)(Nc1nccs1)c1ccc(-c2nc(CCCOc3ccc(Cl)cc3Cl)c[nH]2)cc1 [Compound 11, 4-{4-[3-(2,4-Dichloro-phenoxy)-propyl]-1H-imidazol-2-yl}-N-thiazol-2-yl-benzenesulfonamide]"
